The source of these data is paper PMC9351465, “Mechanism-based heparanase inhibitors reduce cancer metastasis in vivo” (Proceedings of the National Academy of Sciences of the …, 2022).

pIC50: −log10 of the molar value. “And” between values parts separate entries of the source, which are not always exact repeats. Equal values may be shown once.

One may read the pIC50 as the negative decadic logarithm of the IC50, by convention in mol/L.

Assay [1] has as its target T1, endogenous cellular HPSE (U87 glioma cells) (Homo sapiens, UniProt Q9Y251).
T1 construct: endogenous in cells; host or cells: U87 glioma cells
T1 sequence (Q9Y251 158-543 limits assumed): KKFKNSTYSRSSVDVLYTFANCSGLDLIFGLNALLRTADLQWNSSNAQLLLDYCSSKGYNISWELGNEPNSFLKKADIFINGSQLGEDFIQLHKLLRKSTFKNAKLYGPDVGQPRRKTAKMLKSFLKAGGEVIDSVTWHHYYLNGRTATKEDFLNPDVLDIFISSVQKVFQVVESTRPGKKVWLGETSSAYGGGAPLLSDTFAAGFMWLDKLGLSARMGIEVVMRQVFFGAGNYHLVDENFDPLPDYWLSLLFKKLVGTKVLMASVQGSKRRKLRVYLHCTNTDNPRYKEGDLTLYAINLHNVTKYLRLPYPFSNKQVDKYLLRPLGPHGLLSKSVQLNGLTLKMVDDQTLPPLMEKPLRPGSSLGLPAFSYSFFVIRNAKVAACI
T1 sequence (Q9Y251 36-109 limits assumed): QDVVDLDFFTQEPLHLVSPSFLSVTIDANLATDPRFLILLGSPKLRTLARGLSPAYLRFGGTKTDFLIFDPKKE
Briefly: H35SPG digest by U87 glioma cell lysates, inhibitor before or after lysis. The assay is classed as cell-based. The settings on record: inhibitor applied before or after lysis, 18 h digest. From the text:
Finally, we assessed our inhibitors against HPSE-mediated degradation of bona fide HSPGs in an ECM environment. Cultured bovine corneal endothelial cells secrete a subendothelial basement membrane material rich in proteoglycans, which can be radiolabeled by growth in the presence of ^35SO4^2− ([50]). Solubilized H^35S chains released from H^35SPGs by HPSE digestion can be resolved chromatographically, with HPSE inhibition leading to a corresponding loss of signal. […] We also tested inhibition of endogenous cellular HPSE using this assay format.
Figure S7 Radiolabelled H35SPG basement membrane digests by HPSE expressing U87 cell […]
(1 picture or pasted object on this page, not shown here)
For HS-degradation assays, ECM coated dishes were incubated with 200 ng recombinant HPSE in 1 mL reaction mixture (10 mM buffer Phosphate-Citrate pH 6.0, 50 mM NaCl, 1 mM DTT, 1 mM CaCl2) containing HPSE inhibitors or DMSO control. […] The Sepharose 6B column was eluted with PBS, and 35S radioactivity of 0.2 mL fractions quantitated using a liquid scintillation analyzer (Packard BioScience) (11). […]
Cells in the upper chamber were separated by Matrigel from a lower chamber containing 600 µL DMEM, supplemented with 10% FBS. […] 10 randomly selected microscopic fields were recorded, and cell invasion calculated using ImageJ, by quantitating the percentage of the field stained by crystal violet. […]

For a further assay, the target named is T2, HPSE (Homo sapiens, UniProt Q9Y251).
T2 sequence (Q9Y251 158-543 limits assumed): T1 sequence (Q9Y251 158-543 limits assumed)
T2 sequence (Q9Y251 36-109 limits assumed): T1 sequence (Q9Y251 36-109 limits assumed)
Kind of assay: colorimetric fondaparinux cleavage assay. The assay is classed as biochemical. The conditions noted are these: 200 ng/mL HPSE, 100 µM fondaparinux, pH 5.0, 37°C, 18 h, n = 2; read-out: IC50, HPSE-mediated fondaparinux cleavage. As for the experimental part: We next investigated the ability of our inhibitors to abrogate HPSE processing of its native oligosaccharide substrates, using a colorimetric assay that detects cleavage of the synthetic HS pentasaccharide fondaparinux ([49]). […]
Fondaparinux cleavage was performed essentially as previously described (9). Briefly, assays were carried out in 96 well plates (Nunc) pretreated with 4% BSA in TBS-T (20 mM Tris pH 7.4, […]
100 µL reactions were set up in 40 mM NaOAc pH 5.0 buffer, containing final concentrations of 200 ng/mL HPSE, 100 µM Fondaparinux (Arixtra) and specified concentrations of inhibitors.
Reactions were incubated at 37°C for 18 h, then quenched with 100 µL 0.1 M NaOH supplemented with 1.7 mM WST-1 tetrazolium salt, and incubated at 60°C for 1 h. Absorbance at 584 nm was read using an ELISA plate reader (BIO-TEK Instruments). All reactions were carried out in technical duplicate. Data were plotted and analyzed using Sigmaplot (Systat). […]

Take `CC(=O)N[C@H]1[C@@H](O[C@H]2[C@H](O)[C@@H](O)[C@@H]3O[C@@H]3[C@@H]2C(=O)O)O[C@H](CO)[C@@H](O)[C@@H]1O` [compound 2]: the “inhibition of intracellular HPSE pool (cell penetration)” value in assay [1] is on record as “can also penetrate cells to inhibit the intracellular HPSE pool”. In addition, the pIC50 on HPSE is 6.34 and ~6.34.
